This is an account of results in ChEMBL document CHEMBL5532641, “MNK, mTOR or eIF4E-selecting the best anti-tumor target for blocking translation initiation” (Eur J Med Chem, 2023).

Data set [1] addresses EIF4E/EIF4G1 (Homo sapiens, UniProt P06730+Q04637). The format is protein-complex assay.
Data set [2] deals with Lymphoma cell line. In words: cells. Format: functional, cell-based. The settings on record: Homo sapiens, 72 h.
The subject of data set [3] is Leukemia cell. In words: cells. The format is functional, cell-based. The settings on record: Homo sapiens, 72 h.
Data set [4] addresses Eukaryotic initiation factor 4A-I (Homo sapiens, UniProt P60842).
Data set [5] concerns the target Phosphatidylinositol 4,5-bisphosphate 3-kinase catalytic subunit gamma isoform (Homo sapiens, UniProt P48736).
The target in data set [6] is MAP kinase-interacting serine/threonine-protein kinase 2 (Homo sapiens, UniProt Q9HBH9).
The target in data set [7] is mTORC1 (Homo sapiens) (UniProt P42345+Q8N122+Q9BVC4). Conditions: dose 500.0 nM.
Data set [8] concerns CWR22R. In words: animal or person. The settings on record: Mus musculus, 22Rv1, 816 h, route ip, time 34 day, read-out: TGI. Format: functional, Homo sapiens.
Data set [9] is described as follows: animal or person. The settings on record: Homo sapiens, BR100 cell, 408 h, route ip, time 17 day, read-out: TGI. The format is functional.
The subject of data set [10] is MDA-MB-231. The experiment in a line: animal or person. The format is functional, Homo sapiens. Conditions: Mus musculus, MDA-MB-231, 696 h, route ip, time 29 day, read-out: TGI.
Data set [11] deals with MDA-MB-231. In words: animal or person. The format is functional, Homo sapiens. Conditions: Mus musculus, MDA-MB-231, 696 h, route ip, time 29 day, read-out: TGI. This is another data set of the same source.
The test system of data set [12] is CWR22R. In words: animal or person. The format is functional, Homo sapiens. The settings on record: Mus musculus, 22Rv1, 816 h, route ip, time 34 day, read-out: TGI. This is another data set of the same source.
For data set [13], the system named is MDA-MB-231. In words: animal or person. The settings on record: Mus musculus, MDA-MB-231, 696 h, route ip, time 29 day, read-out: TGI. Format: functional, Homo sapiens. The source holds these as a separate data set.
Data set [14] relates to A549. In words: cells. The format is functional, cell-based. The settings on record: Homo sapiens, A549, 70 min.
Data set [15] in a line: in vivo. The settings on record: mouse, po.

Eukaryotic initiation factor 4A-I, sequence (P60842 whole entry, canonical isoform): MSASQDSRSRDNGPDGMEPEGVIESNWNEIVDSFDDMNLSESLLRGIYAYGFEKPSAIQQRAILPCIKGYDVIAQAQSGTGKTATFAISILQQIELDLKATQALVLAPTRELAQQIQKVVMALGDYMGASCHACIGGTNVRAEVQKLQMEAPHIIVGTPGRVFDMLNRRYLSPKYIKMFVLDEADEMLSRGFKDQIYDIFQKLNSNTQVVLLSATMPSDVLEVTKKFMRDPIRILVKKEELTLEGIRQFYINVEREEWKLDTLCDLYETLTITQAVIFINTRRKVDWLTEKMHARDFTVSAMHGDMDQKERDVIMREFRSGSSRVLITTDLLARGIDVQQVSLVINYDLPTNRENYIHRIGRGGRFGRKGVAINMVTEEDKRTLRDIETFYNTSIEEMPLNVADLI
EIF4E/EIF4G1, sequence (P06730 whole entry): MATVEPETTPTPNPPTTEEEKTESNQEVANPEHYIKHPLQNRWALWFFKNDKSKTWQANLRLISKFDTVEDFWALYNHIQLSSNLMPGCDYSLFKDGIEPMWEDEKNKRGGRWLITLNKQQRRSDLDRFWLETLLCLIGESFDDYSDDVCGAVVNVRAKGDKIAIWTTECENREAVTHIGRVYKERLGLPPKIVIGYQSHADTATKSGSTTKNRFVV
EIF4E/EIF4G1, sequence (Q04637 whole entry): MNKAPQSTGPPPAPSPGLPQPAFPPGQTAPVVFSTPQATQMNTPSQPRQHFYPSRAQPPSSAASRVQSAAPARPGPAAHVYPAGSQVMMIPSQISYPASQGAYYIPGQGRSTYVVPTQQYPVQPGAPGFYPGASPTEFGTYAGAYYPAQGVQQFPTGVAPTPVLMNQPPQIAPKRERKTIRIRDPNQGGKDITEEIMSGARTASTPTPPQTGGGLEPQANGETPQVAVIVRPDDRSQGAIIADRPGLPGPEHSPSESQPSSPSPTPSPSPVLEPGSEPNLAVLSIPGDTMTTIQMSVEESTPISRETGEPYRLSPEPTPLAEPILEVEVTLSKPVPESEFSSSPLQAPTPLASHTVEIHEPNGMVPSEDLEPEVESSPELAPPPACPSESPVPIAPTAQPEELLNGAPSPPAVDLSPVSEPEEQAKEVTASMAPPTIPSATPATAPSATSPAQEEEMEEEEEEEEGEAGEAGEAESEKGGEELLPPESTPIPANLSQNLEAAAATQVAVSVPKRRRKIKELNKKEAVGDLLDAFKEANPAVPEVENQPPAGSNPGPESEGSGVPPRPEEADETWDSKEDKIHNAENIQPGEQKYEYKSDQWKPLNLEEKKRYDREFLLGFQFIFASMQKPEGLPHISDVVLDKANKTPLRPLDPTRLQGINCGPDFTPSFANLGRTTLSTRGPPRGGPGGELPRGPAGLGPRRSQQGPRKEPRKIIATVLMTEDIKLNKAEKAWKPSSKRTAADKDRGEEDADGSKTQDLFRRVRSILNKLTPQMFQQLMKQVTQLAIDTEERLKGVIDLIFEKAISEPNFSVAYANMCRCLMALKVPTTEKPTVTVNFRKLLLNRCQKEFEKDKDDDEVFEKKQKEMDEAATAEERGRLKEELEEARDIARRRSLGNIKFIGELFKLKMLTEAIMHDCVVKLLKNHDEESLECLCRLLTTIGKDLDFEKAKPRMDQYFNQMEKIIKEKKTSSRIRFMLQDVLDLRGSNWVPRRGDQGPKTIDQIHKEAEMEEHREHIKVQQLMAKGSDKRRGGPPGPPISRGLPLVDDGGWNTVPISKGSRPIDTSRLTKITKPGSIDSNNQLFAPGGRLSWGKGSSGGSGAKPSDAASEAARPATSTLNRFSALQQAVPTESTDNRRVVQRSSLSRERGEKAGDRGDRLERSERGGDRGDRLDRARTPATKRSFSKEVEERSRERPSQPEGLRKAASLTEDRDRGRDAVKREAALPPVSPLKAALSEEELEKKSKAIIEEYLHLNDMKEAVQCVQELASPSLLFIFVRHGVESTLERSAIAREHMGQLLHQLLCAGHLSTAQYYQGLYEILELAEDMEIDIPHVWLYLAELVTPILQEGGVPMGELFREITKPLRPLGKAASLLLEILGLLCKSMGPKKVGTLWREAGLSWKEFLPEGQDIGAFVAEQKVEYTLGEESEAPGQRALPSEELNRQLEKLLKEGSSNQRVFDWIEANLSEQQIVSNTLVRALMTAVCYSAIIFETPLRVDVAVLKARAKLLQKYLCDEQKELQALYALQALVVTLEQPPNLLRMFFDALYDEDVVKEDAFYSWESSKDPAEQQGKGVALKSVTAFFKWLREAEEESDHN
mTORC1 (Homo sapiens), sequence (Q8N122 whole entry, looked up, other chains not shown): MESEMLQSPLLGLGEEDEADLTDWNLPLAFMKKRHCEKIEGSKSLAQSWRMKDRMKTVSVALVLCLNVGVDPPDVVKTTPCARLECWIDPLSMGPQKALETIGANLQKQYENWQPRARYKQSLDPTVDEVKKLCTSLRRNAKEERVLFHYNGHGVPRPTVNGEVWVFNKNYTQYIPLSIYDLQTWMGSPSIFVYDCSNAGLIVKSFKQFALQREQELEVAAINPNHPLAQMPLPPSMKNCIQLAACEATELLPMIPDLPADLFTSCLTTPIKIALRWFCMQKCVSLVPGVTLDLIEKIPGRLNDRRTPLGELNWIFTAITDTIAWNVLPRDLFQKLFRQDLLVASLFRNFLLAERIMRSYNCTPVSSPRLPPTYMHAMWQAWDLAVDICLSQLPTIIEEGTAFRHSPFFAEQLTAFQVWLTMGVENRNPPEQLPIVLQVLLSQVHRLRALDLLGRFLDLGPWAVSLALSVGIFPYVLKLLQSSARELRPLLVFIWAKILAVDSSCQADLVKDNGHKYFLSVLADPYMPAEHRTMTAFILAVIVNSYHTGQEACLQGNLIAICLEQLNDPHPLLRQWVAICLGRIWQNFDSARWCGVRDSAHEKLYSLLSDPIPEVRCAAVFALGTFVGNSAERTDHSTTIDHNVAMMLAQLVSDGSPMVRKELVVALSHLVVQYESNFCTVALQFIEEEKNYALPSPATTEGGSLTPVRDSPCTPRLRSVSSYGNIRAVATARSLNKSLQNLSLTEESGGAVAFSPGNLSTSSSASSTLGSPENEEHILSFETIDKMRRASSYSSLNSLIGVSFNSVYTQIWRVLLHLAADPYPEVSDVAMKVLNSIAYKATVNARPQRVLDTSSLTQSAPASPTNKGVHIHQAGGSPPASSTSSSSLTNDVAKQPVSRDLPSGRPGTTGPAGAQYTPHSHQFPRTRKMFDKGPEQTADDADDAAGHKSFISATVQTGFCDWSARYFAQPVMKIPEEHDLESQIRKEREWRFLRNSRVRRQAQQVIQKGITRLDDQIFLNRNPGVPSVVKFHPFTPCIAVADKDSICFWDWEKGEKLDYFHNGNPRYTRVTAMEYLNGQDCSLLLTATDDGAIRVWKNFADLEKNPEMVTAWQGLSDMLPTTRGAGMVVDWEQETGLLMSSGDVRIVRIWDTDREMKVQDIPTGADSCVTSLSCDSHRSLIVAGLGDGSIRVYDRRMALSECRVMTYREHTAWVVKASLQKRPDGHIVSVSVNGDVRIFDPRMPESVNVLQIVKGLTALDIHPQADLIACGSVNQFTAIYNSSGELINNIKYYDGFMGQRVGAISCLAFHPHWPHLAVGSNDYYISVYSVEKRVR
mTORC1 (Homo sapiens), sequence (Q9BVC4 whole entry, looked up, other chains not shown): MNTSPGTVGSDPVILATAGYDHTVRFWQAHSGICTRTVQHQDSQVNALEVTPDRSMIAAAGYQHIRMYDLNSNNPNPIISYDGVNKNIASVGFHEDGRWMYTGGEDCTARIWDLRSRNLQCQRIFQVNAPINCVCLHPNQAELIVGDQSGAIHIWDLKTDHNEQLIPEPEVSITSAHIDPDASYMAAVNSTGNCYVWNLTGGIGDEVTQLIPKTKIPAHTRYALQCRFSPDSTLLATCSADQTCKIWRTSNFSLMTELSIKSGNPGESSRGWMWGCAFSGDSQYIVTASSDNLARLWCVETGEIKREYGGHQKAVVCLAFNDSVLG
Phosphatidylinositol 4,5-bisphosphate 3-kinase catalytic subunit gamma isoform, sequence (P48736 whole entry, canonical isoform): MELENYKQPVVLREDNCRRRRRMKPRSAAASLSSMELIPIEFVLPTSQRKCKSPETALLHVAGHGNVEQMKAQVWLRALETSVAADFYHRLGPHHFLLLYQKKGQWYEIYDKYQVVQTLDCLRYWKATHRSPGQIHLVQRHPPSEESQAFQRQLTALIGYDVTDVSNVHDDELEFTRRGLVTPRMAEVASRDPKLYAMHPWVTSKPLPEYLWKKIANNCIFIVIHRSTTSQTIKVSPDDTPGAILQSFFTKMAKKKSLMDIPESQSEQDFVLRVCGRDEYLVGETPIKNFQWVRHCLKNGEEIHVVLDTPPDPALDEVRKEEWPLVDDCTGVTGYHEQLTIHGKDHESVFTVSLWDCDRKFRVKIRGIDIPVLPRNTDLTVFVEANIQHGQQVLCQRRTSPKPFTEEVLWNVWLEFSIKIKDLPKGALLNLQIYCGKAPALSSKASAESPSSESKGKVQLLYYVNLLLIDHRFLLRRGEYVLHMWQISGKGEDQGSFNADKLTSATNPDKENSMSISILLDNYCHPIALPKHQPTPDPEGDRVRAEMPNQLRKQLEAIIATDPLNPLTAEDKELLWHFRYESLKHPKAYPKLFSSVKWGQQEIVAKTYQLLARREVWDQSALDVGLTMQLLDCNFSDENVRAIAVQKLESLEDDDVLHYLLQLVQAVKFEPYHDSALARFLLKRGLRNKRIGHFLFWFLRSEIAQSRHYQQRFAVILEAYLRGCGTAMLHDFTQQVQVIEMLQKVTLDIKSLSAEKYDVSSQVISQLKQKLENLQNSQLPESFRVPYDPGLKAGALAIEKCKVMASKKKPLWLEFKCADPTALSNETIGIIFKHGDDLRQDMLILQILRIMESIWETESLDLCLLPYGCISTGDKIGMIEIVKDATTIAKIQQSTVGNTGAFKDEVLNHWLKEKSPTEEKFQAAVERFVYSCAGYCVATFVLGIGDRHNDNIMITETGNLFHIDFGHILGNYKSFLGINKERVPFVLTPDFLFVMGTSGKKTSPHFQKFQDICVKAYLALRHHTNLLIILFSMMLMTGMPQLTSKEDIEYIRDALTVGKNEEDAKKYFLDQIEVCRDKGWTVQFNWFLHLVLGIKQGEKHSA

As usually defined, the IC50 is the concentration that inhibits the measured activity by half. As for `O=C(O)c1cc(-c2ccc(/C=C3\SC(=S)N(Cc4ccccc4)C3=O)o2)ccc1Cl`, the midpoint of inhibition in data set [1], the IC50, lay at 13.5 µM. With `C=C1C[C@@H](O)[C@@H](Br)C(C)(C)[C@]12CCC(C)=C(Cl)C2`, the IC50 came out at 1600 nM in data set [2], 1700 nM in data set [3] and 16.4 µM in data set [4]. `COc1ncc(-c2ccc3nccc(-c4ccnnc4)c3c2)cc1NS(=O)(=O)c1ccc(F)cc1F` [OMIPALISIB]: it took 0.024 nM to reach half-maximal inhibition in data set [5] (IC50). The compound `C[C@H](CN)Oc1ccc2ncc(-c3cc4ccccc4o3)n2n1` came in with an IC50 in data set [6] of 904 nM. As a reminder, the inhibition is the relative decrease from the control value, in per cent. High values mean a strong effect, low ones a weak effect. Compound `Oc1cccc(-c2nc(N3CCOCC3)c3oc4ncccc4c3n2)c1` came in with an inhibition in data set [7] of 83.9%. For `CC1=C(/C=C/C(C)=C/C=C/C(C)=C/C(=O)Nc2ccc(F)cc2)C(C)(C)CCC1n1ccnc1` (stereo not given), the inhibition in vivo at 10 mg/kg came out at 63.4% in [8], 73.3% in data set [9] and 97% in [13]. In addition, the inhibition in vivo at 20 mg/kg in [10] was determined as 97%; in data set [12] it was 76.3%. The inhibition in vivo at 5 mg/kg in data set [11] was 91%. Take `O=C(O)/C(Cc1ccccc1[N+](=O)[O-])=N/Nc1nc(-c2ccc(Cl)c(Cl)c2)cs1`: the IC50 in data set [14] came to 6 µM. Usually bioavailability stands for the share of a dose that reaches the circulation, judged against a reference dose that is usually intravenous. On to `COC(=O)[C@H]1[C@@H](O)[C@@]2(O)c3c(OC)cc(O[C@@H]4O[C@@H]([C@H](O)CO)CO[C@H]4OC)cc3O[C@@]2(c2ccc(OC)cc2)[C@@H]1c1ccccc1` [SILVESTROL], for which, in data set [15], the bioavailability was determined as 1%.
